{"source": "patent US20140073694A1", "about": "“CYSTAMINE ANALOGUES FOR THE TREATMENT OF PARKINSON'S DISEASE” (UNIVERSITE LAVAL, priority 2011, published 2014)", "test_system": "MPTP-treated mice", "experiment": "Subacute MPTP mouse model of Parkinson's disease: nigral DAergic markers (TH, Nurr1, DAT)", "type": "in vivo, C57BL/6 mice", "procedure": "Young adult (9-week old, 25 grams) male C57BL/6 mice were purchased from Charles River Laboratories (Montréal, QC, Canada). Animals were housed 4 per cage under standard conditions with free access to food and water, randomized and handled under the same conditions by one investigator. All experiments were performed in accordance with the Canadian Council on Animal Care and were approved by the Institutional Committee of the Centre Hospitalier de l'Université Laval (CHUL, Québec, Canada). Throughout the experiment, the health status of all mice included in the study was closely monitored for weight loss or other signs of health-related issues. All efforts were made to minimize animal pain and discomfort.\nMice received 7 i.p. injections, twice on the first 2 days of the experimental protocol at an interval of 12 hrs and once a day on 3 subsequent days, of either saline 0.9% or MPTP-HCl (20 mg/kg free base; Sigma, St. Louis, Mo.) dissolved in saline 0.9% prepared fresh (Tremblay et al., 2006; Gibrat et al., 2007; Gibrat et al., 2010).\nBeneficial effects of cystamine in parkinsonian mice (cystamine dihydrochloride, Sigma, St. Louis, Mo.) were evaluated with a dose of 10 mg/kg dissolved in sterile saline 0.9% and prepared fresh for daily i.p. injection 1 hr before MPTP administration. The choice of dose and regime of administration was based on our previous findings (Tremblay et al., 2006; Gibrat et al., 2010). The first injection of cystamine was administered either 1) 2 days before the start of MPTP injections (pre-treatment) or 2) 24 hours after the last MPTP dose (post-treatment), and the treatment continued daily for 14 days post injury.\nThe effects of cystamine on the MPTP toxicity were studied in the following experimental groups: Group I, Saline+Saline; Group II, Saline+Cystamine post-treatment; Group III; Saline+Cystamine pre-treatment; Group IV, MPTP+Saline; Group V, MPTP+Cystamine post-treatment, Group VI, MPTP+Cystamine pre-treatment. In total, 96 mice (n=16 per group) were utilized, monitored daily for weight variation, and ultimately sacrificed by perfusion 24 hrs after the last cystamine (or vehicle) injection.\nExperiment 1. All mice were subjected to intracardiac perfusion with RNAse free 0.1 M phosphate-buffered saline (PBS). After intracardiac perfusion, brains were collected and the two hemispheres were separated. The left hemisphere was post-fixed in 4% paraformaldehyde (PFA) for 48 hrs and transferred to 20% sucrose in 0.1 M PBS for cryoprotection. Coronal brain sections of 25 μm thickness were cut onto a freezing microtome (Leica Microsystems, Montreal, QC) and serially collected in anti-freeze solution (monophosphate sodium monobasic 0.2 M, monophosphate sodium dibasic 0.2 M, ethylene glycol 30%, glycerol 20%) and kept at −20° C. until use. Sections from the left hemisphere were utilized for additional immunohistochemistry and in situ hybridization protocols. The right hemispheres were snap-frozen in 2-methyl-butane and then stored at −80° C. until cryostat dissection for HPLC and western-blot (WB) analyses.\nFor assessment of DAergic neuronal-loss, immunohistochemistry against the enzyme TH was performed as previously described (Tremblay et al., 2006; Gibrat et al., 2009). Briefly, free-floating sections, after several washes and blocking preincubation, were incubated overnight at 4° C. with a rabbit anti-TH (Pel-Freez, Rogers, Ark.; 1:5000). Sections were then incubated for 1 hr at room temperature (RT) in a solution containing biotinylated goat anti-rabbit IgG (Vector Laboratories, Burlington, ON; 1:1500) and subsequently placed in a solution containing avidin-biotin peroxidase complex (ABC Elite kit; Vector Laboratories, Burlington, ON) for 1 hr at RT. Finally, the reaction was developed in 3,3′ diaminobenzidine tetrahydrochloride (DAB) solution (Sigma, St. Louis, Mo.) and 0.1% of 30% hydrogen peroxide (Sigma, St. Louis, Mo.) at RT. […]", "key": {"[1]": {"details": "post-treatment: 10 mg/kg i.p. daily started 24 h after last MPTP dose, 14 days"}, "[2]": {"details": "pre-treatment: 10 mg/kg i.p. daily started 2 days before MPTP"}}, "note": "“Also recorded” adds a separate entry of the source."}
{"smiles": "NCCSSCCN", "note": "[cystamine, Cystamine]", "values": [{"measurement": "DAT mRNA / DAT mRNA expressing cells in the SNpc", "setting": "[1]", "value": "significant recovery; also recorded: higher level; also recorded: comparable number of DAT-positive cells as saline treated animals"}, {"measurement": "Nurr1 mRNA levels in the SNpc", "setting": "[1]", "value": "significant recovery; also recorded: normal levels of Nurr1 mRNA; also recorded: higher level of Nurr1"}, {"measurement": "TH-positive and Nissl-positive neurons in the SNpc, stereological count", "setting": "[1]", "value": "significant recovery of the number of nigral DAergic neurons; also recorded: significantly greater number of TH-positive and Nissl-positive neurons"}, {"measurement": "Nurr1 mRNA levels in the SNpc", "setting": "[2]", "value": "normalization of Nurr1 mRNA levels"}, {"measurement": "SNpc neurons expressing DAT", "setting": "[2]", "value": "normalization; also recorded: comparable number of DAT-positive cells as saline treated animals"}, {"measurement": "TH-immunoreactive (TH-positive) neurons in the SNpc, stereological count", "setting": "pre-treatment: 10 mg/kg i.p. daily started 2 days before MPTP, continued 14 days post injury", "value": "increase density of TH-immunoreactive cells in the SNpc"}]}
